Data published in patent US4920124A, “N-substituted 3,4-dihydropyrimidine compounds as agents for treating disorders of cardiovascular system” (Suntory Limited, priority 1987, dated 1990).

system: vertebral artery; experiment: vascular resistance of the vertebral artery in anesthetized dogs (ED30); type: in vivo, dog; details: Canis lupus familiaris, intravenous injection

SMILES | ED30
CC1=NC(C)=C(C(=O)OC(C)C)C(c2ccccc2[N+](=O)[O-])N1C(=O)OCCN(Cc1ccccc1)Cc1ccc(Cl)c(Cl)c1 (centres unmarked) [Example 1, 3-[2-{N-benzyl-N-(3,4-dichlorobenzyl)amino}ethoxycarbonyl]-5-isopropoxycarbonyl-2,6-dimethyl-4-(2-nitrophenyl)-3,4-dihydropyrimidine] | 2.1 µg/kg
COc1ccc(CN(CCOC(=O)N2C(C)=NC(C)=C(C(=O)OC(C)C)C2c2ccccc2[N+](=O)[O-])Cc2ccccc2)cc1 (centres unmarked) [Example 2] | 1.8 µg/kg
CC1=NC(C)=C(C(=O)OC(C)C)C(c2ccccc2[N+](=O)[O-])N1C(=O)OCCN(Cc1ccccc1)Cc1ccc(F)cc1 (centres unmarked) [Example 3] | 2.6 µg/kg
CC1=NC(C)=C(C(=O)OC(C)C)C(c2ccccc2[N+](=O)[O-])N1C(=O)OCCN(Cc1ccccc1)Cc1ccc(Cl)cc1 (centres unmarked) [Example 4] | 2.9 µg/kg
CC1=NC(C)=C(C(=O)OC(C)C)C(c2ccccc2[N+](=O)[O-])N1C(=O)OCCN(Cc1ccccc1)Cc1ccc(C)cc1 (centres unmarked) [Example 5] | 2.8 µg/kg
CC1=NC(C)=C(C(=O)OC(C)C)C(c2ccccc2[N+](=O)[O-])N1C(=O)OCCN(Cc1ccc(F)cc1)Cc1ccc(F)cc1 (centres unmarked) [Example 6] | 1.3 µg/kg
CC1=NC(C)=C(C(=O)OC(C)C)C(c2ccccc2[N+](=O)[O-])N1C(=O)OCCN(Cc1ccccc1)Cc1ccccc1F (centres unmarked) [Example 9] | 2.3 µg/kg
COc1cccc(CN(CCOC(=O)N2C(C)=NC(C)=C(C(=O)OC(C)C)C2c2ccccc2[N+](=O)[O-])Cc2ccccc2)c1 (centres unmarked) [Example 10] | 1.8 µg/kg
CC1=NC(C)=C(C(=O)OC(C)C)C(c2ccccc2[N+](=O)[O-])N1C(=O)OCCN(Cc1ccccc1)Cc1cccc(F)c1 (centres unmarked) [Example 11] | 2.1 µg/kg
CC1=NC(C)=C(C(=O)OC(C)C)C(c2ccccc2[N+](=O)[O-])N1C(=O)OCCN(Cc1ccccc1)Cc1ccccc1Cl (centres unmarked) [Example 13] | 4.7 µg/kg

system: vertebral artery; experiment: time course of changes in the vascular resistance of the vertebral artery in anesthetized dogs (T1/2); type: in vivo, dog; details: injected with the ED30 doses
Procedure: Adult dogs of either sex (7~14 kg in body weight) were anesthetized with at first thiopental sodium (35 mg/kg, intraperitoneal), anesthetized with urethane (400 mg/kg, intravenous) and chloralose (60 mg/kg, intravenous) and kept under artificial respiration throughout the experiment. After thoracotomy at the left first intercostal space, the vertebral artery was exposed and blood flow was measured with intracorporeal flow probe connected to an electromagnetic flowmeter (MF-27, Nihon Kohden).
At the same time, continuous measurement of the following parameters was made: systemic blood pressure (mean pressure) at the right femoral artery, the limb lead II ECG, the heart rate with a tachometer triggered by the R wave of ECG, and the vascular resistance determined by loading a electronic divider unit (EO-601 G, Nihon Kohden) with the mean values of blood pressure and vertebral artery blood flow. All of these parameters were recorded simultaneously on a polygraph (RM-600, Nihon Kohden).
All the test compounds were injected through a cannula inserted into the femoral vein.
Selected compounds of the present invention were tested for their ability to reduce the resistance of the vertebral artery in anesthetized dogs.
The animals were injected with the ED30 doses of test compounds and the time course of changes in the vascular resistance were studied in the same manner as in Example 26. The time course of changes can be as shown schematically in FIG. 1. From the curve shown in FIG. 1, the values of T1/2 (min) (the time to reach 50% of the resistance drop) were calculated. The results are shown in Table 3, in which the compound numbers correspond to the Example numbers.

SMILES | T1/2 (the time to reach 50% of the resistance drop)
CC1=NC(C)=C(C(=O)OC(C)C)C(c2ccccc2[N+](=O)[O-])N1C(=O)OCCN(Cc1ccccc1)Cc1ccc(Cl)c(Cl)c1 (centres unmarked) [Example 1, 3-[2-{N-benzyl-N-(3,4-dichlorobenzyl)amino}ethoxycarbonyl]-5-isopropoxycarbonyl-2,6-dimethyl-4-(2-nitrophenyl)-3,4-dihydropyrimidine] | > 25.0 min
COc1ccc(CN(CCOC(=O)N2C(C)=NC(C)=C(C(=O)OC(C)C)C2c2ccccc2[N+](=O)[O-])Cc2ccccc2)cc1 (centres unmarked) [Example 2] | 8.2 min
CC1=NC(C)=C(C(=O)OC(C)C)C(c2ccccc2[N+](=O)[O-])N1C(=O)OCCN(Cc1ccccc1)Cc1cccc(Cl)c1 (centres unmarked) [Example 14] | 10.6 min
CC1=NC(C)=C(C(=O)OC(C)C)C(c2ccccc2[N+](=O)[O-])N1C(=O)OCCN(Cc1ccccc1)Cc1ccc(Cl)cc1Cl (centres unmarked) [Example 15] | > 20.0 min
CC1=NC(C)=C(C(=O)OC(C)C)C(c2ccccc2[N+](=O)[O-])N1C(=O)OCCN(Cc1ccccc1)Cc1ccc(C(F)(F)F)cc1 (centres unmarked) [Example 16] | 7.9 min
CC1=NC(C)=C(C(=O)OC(C)C)C(c2ccccc2[N+](=O)[O-])N1C(=O)OCCN(Cc1ccc(Cl)cc1)Cc1ccc([N+](=O)[O-])cc1 (centres unmarked) [Example 20] | 10.2 min
COc1ccc(CN(CCOC(=O)N2C(C)=NC(C)=C(C(=O)OC(C)C)C2c2ccccc2[N+](=O)[O-])Cc2ccc(Cl)c(Cl)c2)cc1 (centres unmarked) [Example 21] | 20.0 min
CC1=NC(C)=C(C(=O)OC(C)C)C(c2ccccc2[N+](=O)[O-])N1C(=O)OCCN(Cc1ccc(Cl)cc1)Cc1cccc(Cl)c1 (centres unmarked) [Example 22] | 19.5 min
CC1=NC(C)=C(C(=O)OC(C)C)C(c2cccc([N+](=O)[O-])c2)N1C(=O)OCCN(Cc1ccccc1)Cc1ccc(Cl)c(Cl)c1 (centres unmarked) [Example 24, 3-[2-{N-benzyl-N-(3,4-dichlorobenzyl)amino}ethoxycarbonyl]-5-isopropoxycarbonyl-2,6-dimethyl-4-(3-nitrophenyl)-3,4-dihydropyrimidine] | 16.0 min
CC1=NC(C)=C(C(=O)OC(C)C)C(c2ccccc2[N+](=O)[O-])N1C(=O)OCCN(Cc1ccccc1)Cc1c(Cl)cccc1Cl (centres unmarked) [Example 25] | 11.7 min
